Structures can show the parent of a compound that is named as a salt.

T1 sequence (P23791 whole entry): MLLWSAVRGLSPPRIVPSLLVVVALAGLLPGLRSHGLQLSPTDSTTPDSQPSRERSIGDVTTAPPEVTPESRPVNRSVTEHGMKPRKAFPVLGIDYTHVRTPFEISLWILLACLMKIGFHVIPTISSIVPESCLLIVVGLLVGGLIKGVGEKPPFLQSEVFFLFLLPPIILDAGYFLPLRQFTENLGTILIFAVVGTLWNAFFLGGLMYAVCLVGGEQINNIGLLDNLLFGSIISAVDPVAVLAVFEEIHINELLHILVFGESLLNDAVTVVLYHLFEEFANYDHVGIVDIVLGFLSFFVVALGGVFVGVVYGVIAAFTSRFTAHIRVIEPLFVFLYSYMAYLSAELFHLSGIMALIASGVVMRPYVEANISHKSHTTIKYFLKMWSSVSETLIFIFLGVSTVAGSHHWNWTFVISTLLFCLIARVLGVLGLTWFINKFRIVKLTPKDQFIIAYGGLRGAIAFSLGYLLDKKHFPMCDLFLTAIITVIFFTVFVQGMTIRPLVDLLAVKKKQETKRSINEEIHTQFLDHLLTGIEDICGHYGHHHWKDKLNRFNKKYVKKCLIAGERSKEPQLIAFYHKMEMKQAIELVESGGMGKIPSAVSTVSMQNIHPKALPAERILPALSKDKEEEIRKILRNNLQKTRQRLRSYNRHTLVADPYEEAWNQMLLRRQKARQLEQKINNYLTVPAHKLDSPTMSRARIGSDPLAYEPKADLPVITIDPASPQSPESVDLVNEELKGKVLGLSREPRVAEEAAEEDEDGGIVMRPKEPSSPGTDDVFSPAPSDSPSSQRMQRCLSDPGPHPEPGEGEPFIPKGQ

The assay addresses T1, Na⁺/H⁺-Exchangers von Kaninchenerythrocyten (Oryctolagus cuniculus, UniProt P23791).
T1 construct: den Na⁺-Influx in die Erythrocyten via Na⁺/H⁺-Austausch flammenphotometrisch bestimmen zu können; endogenous in cells; host or cells: erythrocytes in blood from the ear arteries of cholesterol-fed White New Zealand rabbits
The experiment in a line: Inhibition of the Na+/H+ exchanger of rabbit erythrocytes (amiloride-sensitive sodium influx, flame photometry). The format is cell-based, Kaninchen. Particulars: Inhibition des Na⁺/H⁺-Exchangers, hyperosmolares Salz-Sucrose-Medium, pH 7,4, 37°C, read-out: IC₅₀. From the text:
Inhibition des Na⁺/H⁺-Exchangers von Kaninchenerythrocyten
Weiße Neuseeland-Kaninchen (Ivanovas) erhielten eine Standard-Diät mit 2% Cholesterin für sechs Wochen, um den Na⁺/H⁺-Austausch zu aktivieren und so den Na⁺-Influx in die Erythrocyten via Na⁺/H⁺-Austausch flammenphotometrisch bestimmen zu können. Das Blut wurde den Ohrarterien entnommen und durch 25 IE Kalium-Heparin ungerinnbar gemacht. Ein Teil jeder Probe wurde zur Doppelbestimmung des Hämatokrits durch Zentrifugieren benutzt. Aliquots von jeweils 100 µl dienten zur Messung des Na⁺-Ausgangsgehalts der Erythrocyten.
Um den Amilorid-sensitiven Natrium-Influx zu bestimmen, wurden 100 µl jeder Blutprobe in jeweils 5 ml eines hyperosmolaren Salz-Sucrose-Mediums (mmol/l: 140 NaCl, 3 KCl, 150 Sucrose, 0,1 Ouabain, 20 Tris-hydroxymethylaminomethan) bei pH 7,4 und 37°C inkubiert. Die Erythrozyten wurden danach dreimal mit eiskalter MgCl₂-Ouabain-Lösung (mmol/l: 112 MgCl₂, 0,1 Ouabain) gewaschen und in 2,0 ml destilliertem Wasser hämolysiert. Der intrazelluläre Natriumgehalt wurde flammenphotometrisch bestimmt.
Der Na⁺-Nettoinflux wurde aus der Differenz zwischen Natrium-Ausgangswerten und dem Natriumgehalt der Erythrocyten nach Inkubation errechnet. Der Amilorid-hemmbare Natrium-Influx ergab sich aus der Differenz des Natriumgehalts der Erythrocyten nach Inkubation mit und ohne Amilorid 3 x 10⁻⁴ mol/l. Auf diese Weise wurde auch bei den erfindungsgemäßen Verbindungen verfahren.
In the case of `NC(N)=NC(=O)c1cc(Cl)ccc1N` [Beispiel 9, 2-Amino-5-chloro-benzoylguanidin-dihydrochlorid], the IC50 lay in the range of 1000 to 2000 nM. With `NC(N)=NC(=O)c1cc(Br)c(Br)cc1N` [Beispiel 11, 2-Amino-4,5-dibromo-benzoylguanidin] the figure was 100 nM. As to `CN(C)c1ccc(Cl)cc1C(=O)N=C(N)N` [Beispiel 12, 2-Dimethylamino-5-chloro-benzoylguanidin-dihydrochlorid], the IC50 was 1000 to 2000 nM. As to `NC(N)=NC(=O)c1cc(S(N)(=O)=O)c(Cl)cc1N` [Beispiel 1, 2-Amino-4-chloro-5-sulfamoyl-benzoylguanidin-dihydrochlorid], the IC50 was in the range of 2000 to 3000 nM.
